Experimental data from patent US10660877B2 (BRISTOL-MYERS SQUIBB COMPANY, priority 2016, dated 2020).

Tests used:
human TLR7 = human TLR7 (Homo sapiens (Human), UniProt Q9NYK1); test: TLR7 inhibition reporter assay (HEK-Blue cells, SEAP reporter, gardiquimod stimulation); assay type: cell-based; conditions: HEK-Blue cells overexpressing human TLR7, gardiquimod 7.5 μM
human TLR9 = human TLR9 (Homo sapiens (Human), UniProt Q9NR96); test: TLR9 inhibition reporter assay (HEK-Blue cells, SEAP reporter, ODN2006 stimulation); conditions: read-out: TLR9 IC50, HEK-Blue cells overexpressing human TLR9, ODN2006 5 nM;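 also: compounds tested over 0.05 nM to 50 µM, 22 h incubation, inhibition taken as SEAP signal drop from agonist plus DMSO wells toward a known inhibitor control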
Sequence of human TLR9 (Q9NR96 26-1032): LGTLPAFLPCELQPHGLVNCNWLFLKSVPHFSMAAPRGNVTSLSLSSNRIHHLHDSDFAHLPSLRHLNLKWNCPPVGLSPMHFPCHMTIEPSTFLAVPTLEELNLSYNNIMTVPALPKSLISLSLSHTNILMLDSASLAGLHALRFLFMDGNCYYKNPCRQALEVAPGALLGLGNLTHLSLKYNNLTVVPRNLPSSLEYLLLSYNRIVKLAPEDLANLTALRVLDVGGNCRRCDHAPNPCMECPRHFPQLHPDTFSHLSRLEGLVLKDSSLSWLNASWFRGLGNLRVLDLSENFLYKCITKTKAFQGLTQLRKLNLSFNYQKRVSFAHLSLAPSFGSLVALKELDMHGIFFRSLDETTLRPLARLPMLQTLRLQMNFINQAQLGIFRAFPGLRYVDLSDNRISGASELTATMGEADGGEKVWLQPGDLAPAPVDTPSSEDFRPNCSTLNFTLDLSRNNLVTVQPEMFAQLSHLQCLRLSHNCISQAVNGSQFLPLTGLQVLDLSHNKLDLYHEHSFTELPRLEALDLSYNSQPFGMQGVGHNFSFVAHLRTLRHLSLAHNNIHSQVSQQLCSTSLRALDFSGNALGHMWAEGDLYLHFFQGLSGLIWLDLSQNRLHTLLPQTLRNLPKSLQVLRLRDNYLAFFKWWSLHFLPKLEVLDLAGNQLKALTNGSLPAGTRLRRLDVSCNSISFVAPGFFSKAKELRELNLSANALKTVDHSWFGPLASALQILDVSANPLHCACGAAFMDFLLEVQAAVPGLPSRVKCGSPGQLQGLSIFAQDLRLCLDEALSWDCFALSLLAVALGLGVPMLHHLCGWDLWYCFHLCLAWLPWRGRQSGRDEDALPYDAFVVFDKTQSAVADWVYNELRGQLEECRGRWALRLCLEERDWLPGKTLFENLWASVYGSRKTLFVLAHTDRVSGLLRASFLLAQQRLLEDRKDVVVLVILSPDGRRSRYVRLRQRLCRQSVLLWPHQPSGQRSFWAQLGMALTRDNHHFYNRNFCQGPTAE

human TLR8 = human TLR8 (Homo sapiens (Human), UniProt Q9NR97); test: TLR8 inhibition reporter assay (HEK-Blue cells, SEAP reporter, R848 stimulation); conditions: read-out: TLR8 IC50, HEK-Blue cells overexpressing human TLR8, R848 15.9 μM;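 also: compounds tested from 0.05 nM to 50 µM, 22 h at 37 °C, SEAP measured with HEK-Blue Detection, inhibition relative to agonist plus DMSO versus a known inhibitor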
Sequence of human TLR8 (Q9NR97 27-1041): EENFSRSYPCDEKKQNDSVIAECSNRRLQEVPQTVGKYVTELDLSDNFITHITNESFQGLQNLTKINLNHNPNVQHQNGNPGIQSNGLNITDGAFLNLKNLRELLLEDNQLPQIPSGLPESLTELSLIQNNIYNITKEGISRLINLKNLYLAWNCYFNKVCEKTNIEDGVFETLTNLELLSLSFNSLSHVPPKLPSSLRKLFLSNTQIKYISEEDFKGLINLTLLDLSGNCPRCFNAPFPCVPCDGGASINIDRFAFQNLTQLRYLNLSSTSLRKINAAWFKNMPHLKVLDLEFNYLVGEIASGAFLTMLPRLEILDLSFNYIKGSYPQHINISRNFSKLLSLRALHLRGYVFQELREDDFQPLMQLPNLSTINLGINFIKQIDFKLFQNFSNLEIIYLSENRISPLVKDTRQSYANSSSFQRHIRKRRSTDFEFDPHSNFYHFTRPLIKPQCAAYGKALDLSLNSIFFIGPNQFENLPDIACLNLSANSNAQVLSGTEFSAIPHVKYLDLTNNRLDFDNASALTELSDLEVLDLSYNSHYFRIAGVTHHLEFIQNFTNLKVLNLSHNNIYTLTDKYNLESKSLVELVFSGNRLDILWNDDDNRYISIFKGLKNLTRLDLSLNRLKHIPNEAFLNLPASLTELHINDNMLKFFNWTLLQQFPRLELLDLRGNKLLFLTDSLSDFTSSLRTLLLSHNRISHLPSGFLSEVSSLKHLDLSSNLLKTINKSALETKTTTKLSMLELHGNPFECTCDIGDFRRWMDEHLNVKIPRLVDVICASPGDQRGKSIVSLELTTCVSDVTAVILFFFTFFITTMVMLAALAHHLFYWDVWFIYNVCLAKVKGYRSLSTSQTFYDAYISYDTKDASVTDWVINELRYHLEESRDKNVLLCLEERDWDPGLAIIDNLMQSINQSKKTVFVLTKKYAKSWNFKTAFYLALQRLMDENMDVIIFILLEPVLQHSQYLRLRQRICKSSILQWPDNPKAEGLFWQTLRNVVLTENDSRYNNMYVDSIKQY

Sequence of human TLR7 (Q9NYK1 27-1049): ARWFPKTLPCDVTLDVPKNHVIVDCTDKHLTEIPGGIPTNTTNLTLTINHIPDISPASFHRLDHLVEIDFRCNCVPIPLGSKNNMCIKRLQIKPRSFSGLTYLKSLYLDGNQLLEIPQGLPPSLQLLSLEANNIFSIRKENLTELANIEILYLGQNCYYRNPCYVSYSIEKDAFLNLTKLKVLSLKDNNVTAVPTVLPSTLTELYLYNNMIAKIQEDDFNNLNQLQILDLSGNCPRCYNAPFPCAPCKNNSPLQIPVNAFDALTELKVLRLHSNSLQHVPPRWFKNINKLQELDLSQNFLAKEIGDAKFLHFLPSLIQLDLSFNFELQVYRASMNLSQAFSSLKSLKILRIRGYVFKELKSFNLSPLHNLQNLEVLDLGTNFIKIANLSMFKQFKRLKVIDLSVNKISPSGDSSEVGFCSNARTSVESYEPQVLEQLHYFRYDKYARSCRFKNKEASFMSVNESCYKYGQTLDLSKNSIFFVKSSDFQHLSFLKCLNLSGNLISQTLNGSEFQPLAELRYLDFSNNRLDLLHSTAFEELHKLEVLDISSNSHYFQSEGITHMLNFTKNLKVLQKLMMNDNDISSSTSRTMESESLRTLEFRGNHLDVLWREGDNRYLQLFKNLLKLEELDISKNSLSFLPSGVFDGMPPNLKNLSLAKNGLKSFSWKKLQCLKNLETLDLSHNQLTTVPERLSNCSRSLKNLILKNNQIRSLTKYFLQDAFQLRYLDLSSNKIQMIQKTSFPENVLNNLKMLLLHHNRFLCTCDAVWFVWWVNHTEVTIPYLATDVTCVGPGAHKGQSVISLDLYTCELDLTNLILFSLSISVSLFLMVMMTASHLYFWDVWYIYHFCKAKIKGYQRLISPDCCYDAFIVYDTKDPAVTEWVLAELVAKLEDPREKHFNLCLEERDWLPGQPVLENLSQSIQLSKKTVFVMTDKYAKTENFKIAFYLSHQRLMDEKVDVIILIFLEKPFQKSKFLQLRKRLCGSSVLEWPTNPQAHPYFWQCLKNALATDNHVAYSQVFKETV

| Compound | IC50 (human TLR7) | IC50 (human TLR9) | IC50 (human TLR8) |
| --- | --- | --- | --- |
| Cc1cc(-c2[nH]c3ccc(C4CCN(C(=O)CNCC(C)(C)C)CC4)cc3c2C(C)C)cc(C)n1 [Example 337, 1-(4-(2-(2,6-dimethylpyridin-4-yl)-3-isopropyl-1H-indol-5-yl)piperidin-1-yl)-2-(neopentylamino)ethan-1-one] | 6.7 nM | 467 nM | 18.3 nM |
| CCC(O)CN1CCC(c2ccc3[nH]c(-c4ccnc(C)c4)c(C(C)C)c3c2)CC1 (stereo not drawn) [Example 664, 1-(4-(3-isopropyl-2-(2-methylpyridin-4-yl)-1H-indol-5-yl)piperidin-1-yl)butan-2-ol] | 10.2 nM | 1570 nM | 4.5 nM |
| Cc1cc(-c2[nH]c3ccc(C4CCN(C(=O)CN5CC[C@H](O)C5)CC4)cc3c2C(C)C)cc(C)n1 [Example 380, (S)-1-(4-(2-(2,6-dimethylpyridin-4-yl)-3-isopropyl-1H-indol-5-yl)piperidin-1-yl)-2-(3-hydroxypyrrolidin-1-yl)ethan-1-one] | 2 nM | 354 nM | 10.5 nM |
| Cc1cc(-c2[nH]c3ccc(C4CCN(Cc5ccn[nH]5)CC4)cc3c2C(C)C)c(F)cn1 [Example 682, 5-(1-((1H-pyrazol-5-yl)methyl)piperidin-4-yl)-2-(5-fluoro-2-methylpyridin-4-yl)-3-isopropyl-1H-indole] | 7.5 nM | 2720 nM | 1.7 nM |
| Cc1cc(-c2[nH]c3ccc(C4CCN(C(=O)C5(C(F)(F)F)CC5)CC4)cc3c2C(C)C)ccn1 [Example 605, (4-(3-isopropyl-2-(2-methylpyridin-4-yl)-1H-indol-5-yl)piperidin-1-yl)(1-(trifluoromethyl)cyclopropyl)methanone] | 77.7 nM | 14300 nM | 124 nM |
| Cc1cc(-c2[nH]c3ccc(C4CCN(CC(=O)N(C)C5CC5)CC4)cc3c2C(C)C)cc(C)n1 [Example 248, N-cyclopropyl-2-(4-(2-(2,6-dimethylpyridin-4-yl)-3-isopropyl-1H-indol-5-yl)piperidin-1-yl)-N-methylacetamide] | 2.3 nM | 343 nM | 10.2 nM |
| CCCS(=O)(=O)N1CCC(c2ccc3[nH]c(-c4ccnc(C)c4)c(C(C)C)c3c2)CC1 [Example 545, 3-isopropyl-2-(2-methylpyridin-4-yl)-5-(1-(propylsulfonyl)piperidin-4-yl)-1H-indole] | 102 nM | > 50000 nM | 266 nM |
| COc1cc(-c2[nH]c3ccc(C4CCNCC4)cc3c2C(C)C)c(F)cn1 [Example 47, 2-(5-fluoro-2-methoxypyridin-4-yl)-3-isopropyl-5-(piperidin-4-yl)-1H-indole] | 9 nM | 3500 nM | 36.2 nM |
| Cc1cc(-c2[nH]c3ccc(C4CCN(C(=O)C5(C)CCNCC5)CC4)cc3c2C(C)C)cc(C)n1 [Example 197, (4-(2-(2,6-dimethylpyridin-4-yl)-3-isopropyl-1H-indol-5-yl)piperidin-1-yl)(4-methylpiperidin-4-yl)methanone] | 2.8 nM | 322 nM | 23.9 nM |
| C=C(c1c(-c2cc(C)nc(C)c2)[nH]c2ccc(C3CCNCC3)cc12)C(F)(F)F [Example 91, 2-(2,6-dimethylpyridin-4-yl)-5-(piperidin-4-yl)-3-(3,3,3-trifluoroprop-1-en-2-yl)-1H-indole] | 3.2 nM | 92 nM | 15.3 nM |
| Cc1cc(-c2[nH]c3ccc(C4CCN(CC(=O)N5CCCC(F)(F)C5)CC4)cc3c2C(C)C)cc(C)n1 [Example 285, 1-(3,3-difluoropiperidin-1-yl)-2-(4-(2-(2,6-dimethylpyridin-4-yl)-3-isopropyl-1H-indol-5-yl)piperidin-1-yl)ethan-1-one] | 4 nM | 423 nM | 13.9 nM |
| CCc1c(-c2ccnc(C)c2)[nH]c2ccc(C3CCN(C(=O)c4ccncc4)CC3)cc12 [Example 591, (4-(3-ethyl-2-(2-methylpyridin-4-yl)-1H-indol-5-yl)piperidin-1-yl)(pyridin-4-yl)methanone] | 251 nM | 15400 nM | 241 nM |
| Cc1cc(-c2[nH]c3ccc(C4CCNCC4)cc3c2C(C)C)cc(N2CCN(C)CC2)n1 [Example 480, 3-isopropyl-2-(2-methyl-6-(4-methylpiperazin-1-yl)pyridin-4-yl)-5-(piperidin-4-yl)-1H-indole] | 2880 nM | 707 nM | 7060 nM |
| CCC(=O)N1CCC(c2ccc3[nH]c(-c4ccnc(C)c4)c(C(C)C)c3c2)CC1 [Example 603, 1-(4-(3-isopropyl-2-(2-methylpyridin-4-yl)-1H-indol-5-yl)piperidin-1-yl)propan-1-one] | 49 nM | 37300 nM | 228 nM |
| CNC(=O)C(=O)N1CCC(c2ccc3[nH]c(-c4cc(C)nc(C)c4)c(C(C)C)c3c2)CC1 [Example 204, 2-(4-(2-(2,6-dimethylpyridin-4-yl)-3-isopropyl-1H-indol-5-yl)piperidin-1-yl)-N-methyl-2-oxoacetamide] | 5.7 nM | 17200 nM | 62.9 nM |
| Cc1cc(-c2[nH]c3ccc(C4CCN(Cc5ncon5)CC4)cc3c2C(C)C)c(F)cn1 [Example 735, 3-((4-(2-(5-fluoro-2-methylpyridin-4-yl)-3-isopropyl-1H-indol-5-yl)piperidin-1-yl)methyl)-1,2,4-oxadiazole] | 22.3 nM | > 50000 nM | 50 nM |
| Cc1cc(-c2[nH]c3ccc(C4CCN(C(=O)CN5CCCC(O)C5)CC4)cc3c2C(C)C)cc(C)n1 (stereo not drawn) [Example 383, 1-(4-(2-(2,6-dimethylpyridin-4-yl)-3-isopropyl-1H-indol-5-yl)piperidin-1-yl)-2-(3-hydroxypiperidin-1-yl)ethan-1-one] | 1.7 nM | 572 nM | 11.1 nM |
| Cc1cc(-c2[nH]c3ccc(C4CCN(CC5CCC5)CC4)cc3c2C(C)C)cc(C)n1 [Example 467, 5-(1-(cyclobutylmethyl)piperidin-4-yl)-2-(2,6-dimethylpyridin-4-yl)-3-isopropyl-1H-indole] | 2.5 nM | 155 nM | 5.8 nM |
| CCc1c(-c2ccnc(Cl)c2)[nH]c2ccc(C3CCNCC3)cc12 [Example 62, 2-(2-chloropyridin-4-yl)-3-ethyl-5-(piperidin-4-yl)-1H-indole] | 22 nM | 2100 nM | 19.4 nM |
| Cc1cc(-c2[nH]c3ccc(C4CCN(C(=O)Cn5nnc(N6CCOCC6)n5)CC4)cc3c2C(C)C)cc(C)n1 [Example 149, 1-(4-(2-(2,6-dimethylpyridin-4-yl)-3-isopropyl-1H-indol-5-yl)piperidin-1-yl)-2-(5-morpholino-2H-tetrazol-2-yl)ethan-1-one] | 21.6 nM | 16100 nM | 143 nM |
| CC(=O)N1CCC(c2ccc3[nH]c(-c4cc(C)ncc4C)c(C(C)C)c3c2)CC1 [Example 584, 1-(4-(2-(2,5-dimethylpyridin-4-yl)-3-isopropyl-1H-indol-5-yl)piperidin-1-yl)ethan-1-one] | 43 nM | > 50000 nM | 45.9 nM |
| Cc1cc(-c2[nH]c3ccc(C4CCN(C(=O)Cn5ccnn5)CC4)cc3c2C(C)C)cc(C)n1 [Example 158, 1-(4-(2-(2,6-dimethylpyridin-4-yl)-3-isopropyl-1H-indol-5-yl)piperidin-1-yl)-2-(1H-1,2,3-triazol-1-yl)ethan-1-one] | 6 nM | 5720 nM | 85.4 nM |
